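Five compound concentrations were applied to cells in 96-well plates for 48 hours; endpoints were derived by simple linear interpolation of the resulting dose-response curve. TGI is the concentration that stops growth completely.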

The values below come from PubChem BioAssay (NCI).

Test systems include SK-OV-3 ovarian; NCI-H226 lung; LOX IMVI melanoma; NCI-H522 lung; SK-MEL-2 melanoma; CAKI-1 renal; SNB-19 CNS; SNB-75 CNS; ACHN renal; MCF7 breast.
Test in all cases: NCI tumour cell line growth inhibition, 48 h

Turning to `COc1cc(-c2oc3c(OC)c(O)c(OC)c(O)c3c(=O)c2OC)cc(O)c1OC`, the TGI is 49.3 µM with SK-OV-3 ovarian; above 100 µM in the assay with NCI-H226 lung; above 100 µM in the assay on LOX IMVI melanoma; above 100 µM in the assay on NCI-H522 lung; above 100 µM in the assay on SK-MEL-2 melanoma; above 100 µM in the assay on CAKI-1 renal. In addition, the TGI in the assay with SNB-19 CNS was above 100 µM; in the assay on SNB-75 CNS it was 42 µM; in the assay on ACHN renal, above 100 µM; with MCF7 breast it was above 100 µM.
As for `S=C(N/N=C(/c1ccccc1)c1ccccn1)Nc1ccccc1Cl`, the TGI worked out at 13 µM in the assay on SK-OV-3 ovarian; 2.67 µM with NCI-H226 lung; 23.3 µM with LOX IMVI melanoma; 1.89 µM in the assay on NCI-H522 lung; 1.8 µM in the assay on SK-MEL-2 melanoma; 11.5 µM in the assay with CAKI-1 renal. The TGI is 15.8 µM in the assay on SNB-19 CNS, 19.4 µM in the assay on SNB-75 CNS, 9.46 µM with ACHN renal and 6.89 µM in the assay with MCF7 breast.
On to `CCCCn1c(C)c(C(=O)OCC)s/c1=N/Nc1nc2ccccc2nc1-c1ccccc1`, for which the TGI in the assay with SK-OV-3 ovarian, in the assay with NCI-H226 lung, with LOX IMVI melanoma, in the assay with NCI-H522 lung, in the assay on SK-MEL-2 melanoma and in the assay with CAKI-1 renal was above 100 µM each time. Moreover, the TGI in the assay on SNB-19 CNS, in the assay with SNB-75 CNS, in the assay on ACHN renal and in the assay with MCF7 breast was above 100 µM each time.
With `CC1(C)N=C(C(N)=O)c2ncn(-c3ccccc3)c2N1`, the TGI with SK-OV-3 ovarian, in the assay with NCI-H226 lung, with LOX IMVI melanoma, in the assay with NCI-H522 lung, in the assay on SK-MEL-2 melanoma and in the assay with CAKI-1 renal was above 100 µM throughout. Besides, the TGI in the assay on SNB-19 CNS, with SNB-75 CNS, with ACHN renal and in the assay on MCF7 breast was above 100 µM throughout.
On to `N#Cc1c(-c2ccc([N+](=O)[O-])cc2)cc(-c2ccc(Nc3ccnc4cc(C(F)(F)F)ccc34)cc2)nc1N`, for which the TGI was above 71.6 µM in the assay on SK-OV-3 ovarian; above 70.1 µM with NCI-H226 lung; above 63.3 µM in the assay on LOX IMVI melanoma; above 100 µM in the assay with NCI-H522 lung; above 59.7 µM in the assay on SK-MEL-2 melanoma; 41.3 µM in the assay with CAKI-1 renal. For the same compound, the TGI with SNB-19 CNS was 34.7 µM; in the assay on SNB-75 CNS, 49.8 µM; with ACHN renal it was above 68.8 µM; in the assay on MCF7 breast, 10.7 µM.
Turning to `CCNC1(c2cccc(C)c2)OC(C)(C)c2cccc3cccc1c23` (stereo not given), the TGI in the assay on SK-OV-3 ovarian is 37.9 µM; in the assay with NCI-H226 lung, 39 µM; with LOX IMVI melanoma it was 32.6 µM; with NCI-H522 lung, 29.6 µM; in the assay on SK-MEL-2 melanoma it was 30.3 µM; with CAKI-1 renal it was 48.1 µM. Also, the TGI in the assay on SNB-19 CNS came out at 33.6 µM; in the assay with SNB-75 CNS it was 30 µM; in the assay on ACHN renal it was 32.4 µM; in the assay with MCF7 breast, 34.9 µM.
